# Results published in patent US5977435A, “Plant phosphatases” (Performance Plants, Inc., priority 1997, dated 1999).
# Where a name gives a salt, the structure may show the parent alone. Read-outs that look alike come from different tables or passages of the source.
# T1: potato phosphatase (Solanum tuberosum, UniProt Q6J5M8)
# T1 sequence (Q6J5M8 with tags, fused parts or gaps V118I/E238V/S277N/V282G/E319A/A394T/S415A/T416I/D418E/I426Y/H428S/N437A): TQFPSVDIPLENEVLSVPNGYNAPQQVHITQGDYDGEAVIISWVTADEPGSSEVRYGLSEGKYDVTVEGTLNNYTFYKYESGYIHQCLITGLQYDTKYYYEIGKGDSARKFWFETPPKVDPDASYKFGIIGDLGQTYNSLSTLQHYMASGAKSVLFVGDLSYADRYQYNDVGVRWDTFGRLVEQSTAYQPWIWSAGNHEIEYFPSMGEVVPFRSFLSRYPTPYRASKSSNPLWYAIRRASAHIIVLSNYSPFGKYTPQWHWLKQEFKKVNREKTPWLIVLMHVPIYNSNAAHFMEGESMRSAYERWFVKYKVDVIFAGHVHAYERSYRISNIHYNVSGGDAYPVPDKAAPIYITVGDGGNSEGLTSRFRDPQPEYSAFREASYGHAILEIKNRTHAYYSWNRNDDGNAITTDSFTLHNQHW
# B1: Phosvitin: egg yolk storage phosphoprotein (protein)
# chain: AEFGTEPDAKTSSSSSSASSTATSSSSSSASSPNRKKPMDEEENDQVKQARNKDASSSSRSSKSSNSSKRSSSKSSNSSKRSSSSSSSSSSSSRSSSSSSSSSSNSKSSSSSSKSSSSSSRSRSSSKSSSSSSSSSSSSSSKSSSSRSSSSSSKSSSHHSHSHHSGHLNGSSSSSSSSRSVSHHSHEHHSGHLEDDSSSSSSSSVLSKIWGRHEIYQ
# modifications: phosphoserine (Ser is the predominant phosphorylated amino acid of phosvitin)
# notes: egg yolk storage phosphoprotein
# What was measured:
# [1] = target: T1, potato phosphatase; assay: Phosphatase assay B, substrate specificity; conditions: for activity of purified enzyme with compound as substrate: tested at 5 mM; for Vmax: pH 5.8, 25° C
# Experimental: Phosphatase activity was determined using assay B and a wide range of compounds, tested at a total concentration of 5 mM unless otherwise specified.
# Phosphatase (0.05 units) was incubated in 1.5 mL cuvettes with 0.9 mL of 50 mM MES-NaOH (pH 5.8) containing 4 mM MgCl2 and an alternative substrate (5 mM unless otherwise indicated) for 6 min at 25° C. Reactions were terminated by the sequential addition of 0.1 mL reagent A (3 M H2 SO4 containing 20 mM ammonium molybdate) and […] of 1% (v/v) Triton X-100. Samples were incubated at 25° C. for 20 min and the A660 was determined. To calculate activities, a standard curve over the range of […] Pi was constructed for each set of assays. Assays were performed in triplicate and controls were run for background amounts of Pi present at each substrate concentration by adding reagent A before the enzyme.
# [2] = target: T1, potato phosphatase; assay: biochemical; type: biochemical; set-up: mature chain from Thr30, C-terminus not determined
# Experimental: Enzyme activity in the presence of effectors is expressed relative to the control set at 100%.
# (§1) Assays were initiated by the addition of enzyme preparation. One unit of phosphatase activity is defined as the quantity of enzyme that would catalyze the hydrolysis of 1 […] of substrate/min at 25° C.
# [3] = target: T1, potato phosphatase; assay: biochemical; type: biochemical; set-up: mature chain from Thr30, C-terminus not determined; conditions: for activation of the phosphatase: 4 mM, added as Cl- salt, Ca, Co, Mn with no added Mg2+
# Experimental: Unless otherwise stated all kinetic studies of the potato phosphatase were performed with PEP using assay A (infra).
# The phosphatase was activated approximately 40% in the presence of saturating (4 mM) Mg^2+ (added as MgCl2). Ca^2+, Co^2+, and Mn^2+ were individually tested as Cl^- salts at 4 mM, with no added Mg^2+, and found to uniformly activate the enzyme by about 30%. […]. […] All subsequent kinetic studies were conducted in the presence of 4 mM MgCl2.
# as §1
# [4] = system: potato tuber phosphotyrosyl proteins; assay: Dephosphorylation of potato tuber phosphotyrosyl proteins by potato tuber phosphatase; type: biochemical, Solanum tuberosum; conditions: 1 mM present during incubation
# Experimental: A desalted potato tuber extract was incubated at 25° C. in the absence (-) and presence (+) of 30 units/mL purified potato tuber phosphatase. Aliquots were removed at 2 and 19 h and analyzed by immunoblotting using anti-(P-Tyr) IgG (Kamps and Sefton, 1988). The relative P-Tyr content of the 7 antigenic polypeptides was estimated by laser densitometric quantification of the immunoblots as described in the examples. Unless otherwise noted, all values represent the means±SE of triplicate determinations. ^a, the mean of duplicate determinations.
# Electroblotting was performed by the method of Moorhead and Plaxton (1990), with the addition of […] o-vanadate to the transfer buffer when maintenance of phosphotyrosyl residues was desired. All immunoblots to be probed with the anti-(black mustard PEP-specific phosphatase) IgG (Duff et al, 1991a) were first pre-treated with sodium m-periodate according to Laine (1988) so as to oxidize antigenic oligosaccharide chains of endogenous tuber glycoproteins. Immunological detection of phosphotyrosylated tuber proteins using anti-(P-Tyr) IgG (Kamps and Sefton, 1988) was performed as referenced above except that the blocking buffer contained 5% (w/v) bovine serum albumin (fraction V) and 1% (w/v) ovalbumin instead of 3% (w/v) defatted milk powder.
# Antigenic polypeptides were visualized using an alkaline-phosphatase-taggedsecondary antibody (Moorhead and Plaxton, 1990). Immunological specificities were confirmed by performing immunoblots in which rabbit preimmune serum was substituted for the affinity-purified IgGs. An LKB Ultroscan XL Enhanced Laser Densitometer was used to scan indicated immunoblots. Densitometric data were analysed using the LKB Gelscan XL software (version 2.1). Immunoreactive polypeptides were quantified in terms of their relative absorbance at 633 nm wavelength (A633).
# Peeled and diced potato tuber tissue (5 g) was homogenized with a Polytron in 1 volume of 100 mM MES-NaOH (pH 5.8) containing 2 mM PMSF, 2 mM DTT, and 1 mM EDTA. The homogenate was centrifuged for 10 min at 13,000 g in an Eppendorf microfuge, and a 3-mL aliquot of the supernatant fluid was passed at 4° C. through a BioRad Econo-Pac 10DG desalting column that had been pre-equilibrated in homogenization buffer lacking PMSF. Aliquots (0.1 mL) of the desalted crude extract were incubated at 25° C. with and without 3 units of the purified potato phosphatase. Samples were removed at 0, 2 and 19 h and analyzed by immunoblotting using the anti-(P-Tyr) IgG as described supra. Laser densitometric scanning and immunoquantification of the blots was performed as described supra.
# [5] = pH 5.8; read-out: Relative Activity
# [6] = addition 5 mM; PEP 0.25 mM; control = 100%
# [7] = pH 5.8, read-out: Relative Activity
# [8] = 5 mM; PEP 0.25 mM; no effect = ±15% control activity
# [9] = purified potato phosphatase, assay B
# [10] = addition 0.001 mM; PEP 0.25 mM; control = 100%
molecule,measurement,setting,value
Nc1ncnc2c1ncn2[C@@H]1O[C@H](COP(=O)(O)O)[C@@H](O)[C@H]1O [AMP],activity of purified enzyme with compound as substrate,[1]; assay B,little or no activity
O=C1O[C@H]([C@@H](O)CO)C(O)=C1O [Ascorbate],activity at 5000 µM,[2]; [5],12%
N[C@@H](CC(=O)O)C(=O)O [Asparatate],Relative Activity,[2]; [6],64%
[Ca+2] [Ca^2+],activation of the phosphatase,[3],about 30%
[Co+2] [Co^2+],activation of the phosphatase,[3],about 30%
O=C(O)CN(CCN(CC(=O)O)CC(=O)O)CC(=O)O [EDTA],activity at 5000 µM,[2]; [7],32%
same,inhibition at 5000 µM,"[3]; pH 5.8, read-out: reduction of activity",~65%
O=C(O)CN(CCOCCOCCN(CC(=O)O)CC(=O)O)CC(=O)O [EGTA],activity at 5000 µM,[2]; [5],72%
N[C@@H](CCC(=O)N[C@@H](CS)C(=O)NCC(=O)O)C(=O)O [GSH],activity at 5000 µM,[2]; [7],131%
O=P(O)(O)OC1O[C@H](CO)[C@@H](O)[C@H](O)[C@H]1O (stereo partly drawn) [Glc-1-P],activity of purified enzyme with compound as substrate,[1]; assay B,little or no activity
NC(CCC(=O)O)C(=O)O (stereo not drawn) [Glutaamate],activity at 5000 µM,[2]; [5],30%
[Cl-].[K+] [KCl],effect on enzyme activity,[2]; [8],no effect
Nc1ncnc2c1ncn2[C@@H]1O[C@H](COP(=O)(O)OP(=O)(O)O)[C@@H](O)[C@H]1O [Mg-ADP],Vmax,[1]; [9],46 units/mg
O=C(O)CC(O)(CC(=O)O)C(=O)O [Mg-citrate],effect on enzyme activity,[2]; [8],no effect
[Cl-].[Cl-].[Mg+2] [Mg^2+],activation of the phosphatase,[3],approximately 40%
[Mn+2] [Mn^2+],activation of the phosphatase,[3],about 30%
CCN1C(=O)C=CC1=O [N-ethylmaleimide],effect on enzyme activity after preincubation of enzyme,"[2]; 1 mM, preincubation up to 2 min at 25° C",no effect
[Cl-].[Na+] [NaCl],effect on enzyme activity,[2],no effect
[F-].[Na+] [NaF],Relative Activity,[2]; [6],56%
C[C@@H](OP(=O)(O)O)[C@H](N)C(=O)O [P-Tbr],Vmax,[1]; [9],99 units/mg
C=C(OP(=O)(O)O)C(=O)O [PEP],Vmax,[1]; [9],764 units/mg
O=P(O)(O)OP(=O)(O)O [PPi],Km,"[1]; apparent Km, purified potato phosphatase, assay B",4.42 mM
same,Vmax,[1]; [9],1728 units/mg
"O=P(O)(O)OC1C(OP(=O)(O)O)C(OP(=O)(O)O)C(OP(=O)(O)O)C(OP(=O)(O)O)C1OP(=O)(O)O (stereo not drawn) [Phytate, the salt of 1,2,3,4,5,6-cyclohexanehexolphosphoric acid]",activity at 100 µM,[2]; [5],48%
[O]=[V]([O-])([O-])[O-] [Vanadate],Relative Activity,[2]; addition 0.005 mM; PEP 0.25 mM; control = 100%,40%
same,Relative Activity,[2]; addition 0.05 mM; PEP 0.25 mM; control = 100%,7%
same,effect on the phosphatase-caused decrease in protein P-Tyr content,[4],negated
[Cl-].[Cl-].[Zn+2] [ZnCl2],inhibition of phosphatase activity,"[3]; 5 mM, in place of added Mg2+",completely inhibited
C=C1[C@@H](O)[C@@H]2O[C@]3(CC[C@H](/C=C/[C@@H](C)[C@@H]4CC(C)=C[C@@]5(O[C@H](C[C@@](C)(O)C(=O)O)CC[C@H]5O)O4)O3)CC[C@H]2O[C@@H]1[C@@H](O)C[C@H](C)[C@H]1O[C@@]2(CCCCO2)CC[C@H]1C [okadaic acid],effect on enzyme activity,[2]; 1 μM; PEP 0.25 mM; no effect = ±15% control activity,no effect
O=C(O)C(O)C(O)C(=O)O (stereo not drawn) [tartrate],effect on enzyme activity,[2]; [8],no effect
Molybdate,Relative Activity,[2]; [10],40%
same,Relative Activity,[2]; addition 0.01 mM; PEP 0.25 mM; control = 100%,7%
same,Relative Activity,[2]; addition 1 mM; PEP 0.25 mM; control = 100%,0%
NH4 Cl,effect on enzyme activity,[2]; [8],no effect
B1,phosphoprotein phosphatase activity,[1]; phosvitin at 50 μg/ml (125 .eta.M),220 units/mg
same,Relative Activity,[2]; [10],19%
